Results published in patent US20180125898A1, “MARINE LECITHIN PREPARATIONS WITH ENHANCED OXIDATION RESISTANCE” (AKER BIOMARINE ANTARCTIC AS, priority 2014, published 2018).

Experiment: Gastric model: incubation in simulated gastric fluid (SGF), LOOH (FOX assay) and MDA, oxidation resistance score
Format: physicochemical
Details: conventional krill oil with high TMAO, three concentrations of Astaxanthin (increased more than 10 fold), 180 minutes
Protocol: Hydroperoxide level was tested by FOX analysis. Measurements were conducted at 562 nm, the absorbance of the Ferric-Xylenol Orange Complex. (Gay 1999).
Malondialdehyde (MDA) level was tested by modified TBARS test. The thiobarbituric acid-MDA adduct was quantified by HPLC (Fenaille 2001) or spectrophotometer.
Marine lecithin preparations according to the invention and conventional marine lecithins were incubated while shaken in simulated gastric fluid (SGF) which contains 2 mg/ml NaCl, 3.2 mg/ml HCl 37%, and 7 mg/ml Pepsine and with 200 μM Ascorbic acid and 50 μM FeCl3 as oxidation catalysts, at 37° C. for 180 min. The final concentration of the oils was 10 mg/ml. Peroxidation markers hydroperoxide (LOOH, by Ferric-Xylenol Orange Complex—FOX assay) and malondialdehyde (MDA-TBA2 HPLC analysis) were analyzed following 180 minutes of incubation in the gastric model.
In order to rank the oils according to their resistance to oxidation in gastric model, a score scale was developed. […]
Conventional krill oil, containing high concentration of TMAO, was enriched with three concentrations of Astaxanthin and incubated in simulated gastric fluid (SGF) as described in Example 3. Hydroperoxide as peroxidation marker (LOOH, by Ferric-Xylenol Orange Complex—FOX assay—see method above) was analyzed following 180 minutes. […]

With CC1=C(/C=C/C(C)=C/C=C/C(C)=C/C=C/C=C(C)/C=C/C=C(C)/C=C/C2=C(C)C(=O)[C@@H](O)CC2(C)C)C(C)(C)C[C@H](O)C1=O [Astaxanthin] the “change in LOOH levels by Astaxanthin enrichment” value was “only minimal change in LOOH levels”.
